# Measurements reported in ChEMBL document CHEMBL2380246, “Structure-activity relationships of hybrid annonaceous acetogenins: powerful growth inhibitory effects of their connecting groups between heterocycle and hydrophobic carbon chain bearing THF ring on human cancer cell lines” (2013).
# Tests used:
# Assay type in all cases: functional
# NCI-H460 = assay: Growth inhibition of human NCI-H460 cells after 48 hrs by sulforhodamine B assay; settings: NCI-H460, 48 h
# SF-539 = assay: Growth inhibition of human SF539 cells after 48 hrs by sulforhodamine B assay; settings: SF-539, 48 h
# A549 = assay: Growth inhibition of human A549 cells after 48 hrs by sulforhodamine B assay; settings: A549, 48 h
# [1] = Growth inhibition of human HBC5 cells after 48 hrs by sulforhodamine B assay; settings: HBC5, 48 h
# [2] = Growth inhibition of human HBC4 cells after 48 hrs by sulforhodamine B assay; settings: HBC4, 48 h
# DU-145 = assay: Growth inhibition of human DU145 cells after 48 hrs by sulforhodamine B assay; settings: DU-145, 48 h
# SF-295 = assay: Growth inhibition of human SF295 cells after 48 hrs by sulforhodamine B assay; settings: SF-295, 48 h
# NCI-H522 = assay: Growth inhibition of human NCI-H522 cells after 48 hrs by sulforhodamine B assay; settings: NCI-H522, 48 h
# MCF7 = assay: Growth inhibition of human MCF7 cells after 48 hrs by sulforhodamine B assay; settings: MCF7, 48 h
# NCI-H226 = assay: Growth inhibition of human NCI-H226 cells after 48 hrs by sulforhodamine B assay; settings: NCI-H226, 48 h
# SK-OV-3 = assay: Growth inhibition of human SKOV3 cells after 48 hrs by sulforhodamine B assay; settings: SK-OV-3, 48 h
# OVCAR-5 = assay: Growth inhibition of human OVCAR5 cells after 48 hrs by sulforhodamine B assay; settings: OVCAR-5, 48 h
# DMS-273 = assay: Growth inhibition of human DMS273 cells after 48 hrs by sulforhodamine B assay; settings: DMS-273, 48 h
# PC-3 = assay: Growth inhibition of human PC3 cells after 48 hrs by sulforhodamine B assay; settings: PC-3, 48 h
# [3] = Growth inhibition of human RXF631L cells after 48 hrs by sulforhodamine B assay; settings: RXF 631, 48 h
# [4] = Growth inhibition of human HCC2998 cells after 48 hrs by sulforhodamine B assay; settings: HCC 2998, 48 h
# MKN-74 = assay: Growth inhibition of human MKN74 cells after 48 hrs by sulforhodamine B assay; settings: MKN-74, 48 h
# OVCAR-4 = assay: Growth inhibition of human OVCAR4 cells after 48 hrs by sulforhodamine B assay; settings: OVCAR-4, 48 h
# MKN-45 = assay: Growth inhibition of human MKN45 cells after 48 hrs by sulforhodamine B assay; settings: MKN-45, 48 h
# HT-29 = assay: Growth inhibition of human HT-29 cells after 48 hrs by sulforhodamine B assay; settings: HT-29, 48 h
# [5] = Growth inhibition of human MKN1 cells after 48 hrs by sulforhodamine B assay; settings: MKN-1, 48 h
# OVCAR-3 = assay: Growth inhibition of human OVCAR3 cells after 48 hrs by sulforhodamine B assay; settings: OVCAR-3, 48 h
# SNB-78 = assay: Growth inhibition of human SNB78 cells after 48 hrs by sulforhodamine B assay; settings: SNB-78, 48 h
# KM12 = assay: Growth inhibition of human KM12 cells after 48 hrs by sulforhodamine B assay; settings: KM12, 48 h
# HCT-15 = assay: Growth inhibition of human HCT15 cells after 48 hrs by sulforhodamine B assay; settings: HCT-15, 48 h
# ACHN = assay: Growth inhibition of human ACHN cells after 48 hrs by sulforhodamine B assay
# SNB-75 = assay: Growth inhibition of human SNB75 cells after 48 hrs by sulforhodamine B assay; settings: SNB-75, 48 h
# St-4 = assay: Growth inhibition of human St-4 cells after 48 hrs by sulforhodamine B assay; settings: St-4, 48 h
# NCI-H23 = assay: Growth inhibition of human NCI-H23 cells after 48 hrs by sulforhodamine B assay; settings: NCI-H23, 48 h
# OVCAR-8 = assay: Growth inhibition of human OVCAR8 cells after 48 hrs by sulforhodamine B assay; settings: OVCAR-8, 48 h
# U-251 = assay: Growth inhibition of human U251 cells after 48 hrs by sulforhodamine B assay; settings: U-251, 48 h
# SF-268 = assay: Growth inhibition of human SF268 cells after 48 hrs by sulforhodamine B assay; settings: SF-268, 48 h
# MDA-MB-231 = assay: Growth inhibition of human MDA-MB-231 cells after 48 hrs by sulforhodamine B assay; settings: MDA-MB-231, 48 h
# LOX IMVI = assay: Growth inhibition of human LOXIMVI cells after 48 hrs by sulforhodamine B assay
# [6] = Growth inhibition of human BSY1 cells after 48 hrs by sulforhodamine B assay; settings: BSY-1, 48 h
# DMS-114 = assay: Growth inhibition of human DMS114 cells after 48 hrs by sulforhodamine B assay; settings: DMS-114, 48 h
# MKN-28 = assay: Growth inhibition of human MKN28 cells after 48 hrs by sulforhodamine B assay; settings: MKN-28, 48 h
# HCT-116 = assay: Growth inhibition of human HCT116 cells after 48 hrs by sulforhodamine B assay; settings: HCT-116, 48 h
# MKN-7 = assay: Growth inhibition of human MKN7 cells after 48 hrs by sulforhodamine B assay; settings: MKN-7, 48 h
Compound,GI50 (NCI-H460) [µM],GI50 (SF-539) [µM],GI50 (A549) [µM],GI50 [1] [µM],GI50 [2] [µM],GI50 (DU-145) [µM],GI50 (SF-295) [µM],GI50 (NCI-H226) [µM],GI50 (SK-OV-3) [µM],GI50 (OVCAR-5) [µM],GI50 (DMS-273) [µM],GI50 (PC-3) [µM],GI50 [3] [µM],GI50 [4] [µM],GI50 (MKN-74) [µM],GI50 (OVCAR-4) [µM],GI50 (MKN-45) [µM],GI50 (HT-29) [µM],GI50 [5] [µM],GI50 (OVCAR-3) [µM],also measured
CCCCCCCCCCCC[C@@H](O)[C@H]1CC[C@H]([C@H](O)CCCCCCCCCCNC(=O)c2ccnn2C)O1,8.13,3.72,12.9,17,> 100,> 100,10,40.7,> 100,> 100,5.75,18.2,> 100,> 100,3.89,22.9,7.41,> 100,43.7,77.6,GI50 (NCI-H522): 1.41 µM; GI50 (MCF7): 3.24 µM; GI50 (SNB-78): > 100 µM; GI50 (KM12): > 100 µM; GI50 (HCT-15): > 100 µM; GI50 (ACHN): 24 µM; GI50 (SNB-75): 50.1 µM; GI50 (St-4): 18.2 µM; GI50 (NCI-H23): 0.0525 µM; GI50 (OVCAR-8): 30.9 µM; GI50 (U-251): > 100 µM; GI50 (SF-268): > 100 µM; GI50 (MDA-MB-231): 8.51 µM
CCCCCCCCCCCC[C@@H](O)[C@H]1CC[C@H]([C@H](O)CCCCCCCCCCC(=O)Nc2ccnn2C)O1,> 100,> 100,> 100,> 100,> 100,> 100,57.5,75.9,> 100,> 100,> 100,> 100,> 100,> 100,> 100,> 100,> 100,> 100,> 100,> 100,GI50 (LOX IMVI): > 100 µM; GI50 (NCI-H522): 28.8 µM; GI50 (MCF7): > 100 µM; GI50 [6]: 95.5 µM; GI50 (DMS-114): 3.31 µM; GI50 (MKN-28): 18.2 µM; GI50 (SNB-78): > 100 µM; GI50 (HCT-116): 64.6 µM; GI50 (KM12): > 100 µM; GI50 (HCT-15): > 100 µM; GI50 (ACHN): > 100 µM; GI50 (SNB-75): > 100 µM; GI50 (St-4): > 100 µM; GI50 (NCI-H23): 26.9 µM; GI50 (OVCAR-8): > 100 µM; GI50 (MKN-7): 20.9 µM; GI50 (U-251): > 100 µM; GI50 (SF-268): > 100 µM; GI50 (MDA-MB-231): > 100 µM
CCCCCCCCCCCC[C@@H](O)[C@H]1CC[C@H]([C@H](O)CCCCCCCCCCOC(=O)c2ccnn2C)O1,34.7,> 100,56.2,25.7,51.3,> 100,30.9,28.2,> 100,> 100,38,28.2,> 100,46.8,30.9,> 100,> 100,32.4,43.7,> 100,GI50 (LOX IMVI): 12.9 µM; GI50 (NCI-H522): 6.31 µM; GI50 (MCF7): 22.9 µM; GI50 [6]: 0.813 µM; GI50 (DMS-114): 0.407 µM; GI50 (MKN-28): 2.51 µM; GI50 (SNB-78): 44.7 µM; GI50 (HCT-116): 3.98 µM; GI50 (KM12): 20 µM; GI50 (HCT-15): 47.9 µM; GI50 (ACHN): 57.5 µM; GI50 (SNB-75): > 100 µM; GI50 (St-4): 30.2 µM; GI50 (NCI-H23): 11 µM; GI50 (OVCAR-8): > 100 µM; GI50 (MKN-7): 0.617 µM; GI50 (U-251): 69.2 µM; GI50 (SF-268): > 100 µM; GI50 (MDA-MB-231): > 100 µM
CCCCCCCCCCCC[C@@H](O)[C@H]1CC[C@H]([C@H](O)CCCCCCCCCCCCC2=C[C@H](C)OC2=O)O1 [REL-SOLAMIN],> 100,> 100,> 100,> 100,> 100,> 100,39.8,> 100,> 100,> 100,> 100,> 100,> 100,> 100,> 100,> 100,> 100,> 100,> 100,> 100,GI50 (LOX IMVI): 28.8 µM; GI50 [6]: > 100 µM; GI50 (DMS-114): 4.27 µM; GI50 (SNB-78): > 100 µM; GI50 (HCT-116): > 100 µM; GI50 (KM12): > 100 µM; GI50 (HCT-15): > 100 µM; GI50 (ACHN): > 100 µM; GI50 (SNB-75): > 100 µM; GI50 (St-4): > 100 µM; GI50 (OVCAR-8): > 100 µM; GI50 (U-251): > 100 µM; GI50 (SF-268): > 100 µM; GI50 (MDA-MB-231): > 100 µM
